Measured values published in patent publication US8404752B2, “Method of treating traumatic brain injury” (Oxygen Biotherapeutics, Inc., priority 2008, dated 2013).

Assay: Physical properties and gas carrying capacity of perfluoro-tert-butylcyclohexane
Assay type: physicochemical

CO2 carried: 196 ml of CO2 per 100 ml of PFC
lipophilicity: non-lipophilic
oxygen carried: about 43 mL of oxygen per 100 ml of PFC
water solubility: non-water soluble
Vapor Pressure (@ 25° C.): 3.8 mmHg
Vapor Pressure (@ 37° C.): 4.4 mmHg
Structure (SMILES): FC(F)(F)C(C(F)(F)F)(C(F)(F)F)C1(F)C(F)(F)C(F)(F)C(F)(F)C(F)(F)C1(F)F [perfluoro-tert-butylcyclohexane]
